These results are taken from patent publication US9872849B2, “Diterpenoid membranolide compounds having anti-leishmania activity and uses thereof” (UNIVERSITY OF SOUTH FLORIDA, priority 2014, dated 2018).

Read-outs that look alike come from different tables or passages of the source. Where only a bound is given, the exact number is not on record here.

One data set has as its system Vero cells. Kind of data set: Cytotoxicity against Vero cells. The settings on record: for IC50: cytotoxicity, read-out: IC50 Values Vero Cell. The data set is classed as cell-based. The protocol:
(§1) Leishmaniasis efficacy was tested against L. donovani axenic amastigotes (amphotericin B, positive control=0.38 μM). Cytotoxicity was verified against Vero cells.

The subject of data set [1] is L. donovani axenic amastigotes. In words: microbe, parasite or virus in culture. The format is cell-based, Leishmania donovani. The method, then:
as §1

The mark [2] stands for this setting: axenic amastigotes, read-out: IC50 Values Leishmania donovani.

For the compound `CO[C@H]1OC(=O)[C@H](C)c2c([C@@]3(C)CCCC(C)(C)C3)ccc(C=O)c21` [Membranolide B, membranolide B], the values for the 50% inhibitory concentration (IC50) (in the data set with Vero cells; in data set [1] (setting [2])) were 44.3 µM and 58.1 µM, respectively.

In the case of `CO[C@@H]1O[C@@H](OC)c2c1ccc([C@@]1(C)CCCC(C)(C)C1)c2[C@@H](C)C(=O)O` [Membranolide C, membranolide C], the IC50 in the data set on Vero cells is 40.7 µM; in data set [1] (setting [2]), more than 53.1 µM.

Consider `CO[C@@H]1O[C@@H](OC)c2c1ccc([C@@]1(C)CCCC(C)(C)C1)c2[C@@H](C)C(=O)O` [Membranolide D, membranolide D], for which the IC50 was 40.7 µM with Vero cells (Chlorocebus sabaeus) and more than 53.1 µM in data set [1] (Leishmania donovani, axenic amastigotes).

For the compound `CC(=O)O[C@@H]1OC2OC(=O)[C@H](C)C3=C([C@@]4(C)CCCC(C)(C)C4)CCC1C32` (stereo partly drawn) [Tetrahydroaplysulphurin, tetrahydroaplysulphurin], the IC50 with Vero cells is 53.3 µM; in data set [1] (setting [2]), 17.3 µM.

For the compound `C[C@@H]1[C@H](O)[C@@H](C)/C=C/C=C/C=C/C=C/C=C/C=C/C=C/[C@H](O[C@@H]2O[C@H](C)[C@@H](O)[C@H](N)[C@@H]2O)C[C@@H]2O[C@](O)(C[C@@H](O)C[C@@H](O)[C@H](O)CC[C@@H](O)C[C@@H](O)CC(=O)O[C@H]1C)C[C@H](O)[C@H]2C(=O)O` [amphotericin B, reference compound], the IC50 in data set [1] (setting [2]) came out at 0.38 µM.

For aplysulphurin, the IC50 is 47.7 µM in the data set with Vero cells and 1.56 µM in data set [1] (setting [2]). In addition, the “selectivity index (cytotoxicity/activity)” value in data set [1] was “high selectivity index”.

As for membranolide A, in the data set on Vero cells, the IC50 is more than 58.1 µM. Moreover, in data set [1] (axenic amastigotes), the “IC50 Values Leishmania donovani” value is “Inactive”.

Regarding membranolide F, the IC50 with Vero cells is 42.4 µM; in data set [1] (setting [2]) it was 26.7 µM.

Turning to membranolide G, the “cytotoxicity (in words)” value in the data set with Vero cells is given as “lacking significant cytotoxicity”. For the same compound, the values for the IC50 (in the data set with Vero cells; in data set [1] (setting [2])) were more than 53.1 µM and 0.82 µM, respectively. The “activity against L. donovani (in words)” value in data set [1] is “potent activity”.

For the compound membranolide H, in the data set on Vero cells, the “cytotoxicity (in words)” value is on record as “lacking significant cytotoxicity” and the IC50 was more than 53.1 µM. The “activity against L. donovani (in words)” value in data set [1] is recorded as “potent activity”. For the same compound, in data set [1] (setting [2]), the IC50 came out at 1.14 µM.

For orientation: IC50 means the concentration that inhibits the measured activity by half.
